# Results taken from ChEMBL document CHEMBL4673228, “Futunamine, a Pyrrole-Imidazole Alkaloid from the Sponge Stylissa aff. carteri Collected off the Futuna Islands” (J Nat Prod, 2020).
# The source made the active and inactive calls. The rule behind the calls is not given here.
# What was measured:
# [1] = system: SH-SY5Y; assay: Neuroprotective activity against TBHP-induced cytotoxicity in human SH-SY5Y cells assessed as increase in cell viability at 0.001 uM after 6 hrs by MTT assay; format: functional, cell-based
# [2] = system: SH-SY5Y; assay: Cytotoxicity against human SH-SY5Y cells assessed as reduction in cell viability at 0.001 to 10 uM after 24 hrs by MTT assay; format: cell-based; conditions: dose 0.001-10 µM
# [3] = system: BV-2; assay: Cytotoxicity against mouse BV-2 cells assessed as reduction in cell viability at 0.001 to 10 uM after 24 hrs by MTT assay; format: cell-based; conditions: bv-2, 24 h, dose 0.001-10 µM
# [4] = system: BV-2; assay: Inhibition of LPS-induced NO production in mouse BV-2 cells at 0.1 to 1 uM preincubated for 1 hrs followed by LPS-stimulation and measured after 24 hrs by Griess reagent based spectrophotometric assay; format: functional, cell-based; conditions: dose 0.1-1 µM
# [5] = system: SH-SY5Y; assay: Neuroprotective activity against TBHP-induced human SH-SY5Y cells assessed as decrease in ROS production at 0.001 to 10 uM after 6 hrs by DCFH-DA dye based spectrophotometric assay relative to control; format: functional; set-up: scale not given: the % may be the effect or the level left; conditions: dose 0.001-10 µM
# [6] = system: SH-SY5Y; assay: Neuroprotective activity against TBHP-induced human SH-SY5Y cells assessed as decrease in ROS production at 1 uM after 6 hrs by DCFH-DA dye based spectrophotometric assay relative to control; format: functional; set-up: scale not given: the % may be the effect or the level left
# [7] = system: SH-SY5Y; assay: Neuroprotective activity against TBHP-induced cytotoxicity in human SH-SY5Y cells assessed as increase in cell viability at 10 uM after 6 hrs by MTT assay; format: functional, cell-based
SMILES,Activity [1],Activity [2],Activity [3],inhibition [4],Activity [5] [%],Activity [6] [%],Activity [7]
Nc1ncc(/C=C/CNC(=O)c2cc(Br)c(Br)[nH]2)[nH]1 [OROIDIN],Active,Non-Toxic,Non-Toxic,–,–,–,–
NC1=N[C@]2([C@H](O)N1)[C@@H](Cl)[C@H](CNC(=O)c1cc(Br)c(Br)[nH]1)[C@H]1CN3C(=O)c4cccn4[C@@H]4N=C(N)N[C@@]43[C@@H]12.O=C(O)C(F)(F)F.O=C(O)C(F)(F)F,–,Non-Toxic,Non-Toxic,Active,35,–,–
NC1=N[C@]2([C@H](O)N1)[C@@H](Cl)[C@H](CNC(=O)c1cc(Br)c(Br)[nH]1)[C@H]1CN3C(=O)c4[nH]ccc4[C@@H]4N=C(N)N[C@@]43[C@@H]12.O=C(O)C(F)(F)F.O=C(O)C(F)(F)F,–,Non-Toxic,Non-Toxic,–,–,–,–
C[C@]1(COC(=O)c2cc(Br)c[nH]2)C[C@@H](C(=O)O)N=CN1 [MANZACIDIN A],Active,Non-Toxic,Non-Toxic,–,–,>25,–
Nc1nc(/C=C/CNC(=O)c2cc(Br)c[nH]2)c[nH]1,Active,Non-Toxic,Non-Toxic,Active,–,>25,–
Nc1nc([C@H]2[C@H](CNC(=O)c3cc(Br)c(Br)[nH]3)/C(=C\CNC(=O)c3ccc[nH]3)c3cnc(N)n32)c[nH]1,–,Non-Toxic,Non-Toxic,–,35,–,Active
